Assay results: article PMC2587100 (Biochemistry, 2008)

Columns and labels:
Type in all cases: biochemical
[1] = biological target: T1, alkaline phosphatase (AP) (Escherichia coli, UniProt P00634, R188K); assay: continuous absorbance assay of hydrolysis, kcat/KM
[2] = biological target: T2, alkaline phosphatase (AP) (Escherichia coli, UniProt P00634, R188S); assay: continuous absorbance assay of hydrolysis, kcat/KM
[3] = biological target: alkaline phosphatase (AP) (Escherichia coli, UniProt P00634); assay: steady-state hydrolysis by purified enzyme, kcat/KM
alkaline phosphatase (AP) (Escherichia coli, UniProt P00634), sequence (P00634 22-471): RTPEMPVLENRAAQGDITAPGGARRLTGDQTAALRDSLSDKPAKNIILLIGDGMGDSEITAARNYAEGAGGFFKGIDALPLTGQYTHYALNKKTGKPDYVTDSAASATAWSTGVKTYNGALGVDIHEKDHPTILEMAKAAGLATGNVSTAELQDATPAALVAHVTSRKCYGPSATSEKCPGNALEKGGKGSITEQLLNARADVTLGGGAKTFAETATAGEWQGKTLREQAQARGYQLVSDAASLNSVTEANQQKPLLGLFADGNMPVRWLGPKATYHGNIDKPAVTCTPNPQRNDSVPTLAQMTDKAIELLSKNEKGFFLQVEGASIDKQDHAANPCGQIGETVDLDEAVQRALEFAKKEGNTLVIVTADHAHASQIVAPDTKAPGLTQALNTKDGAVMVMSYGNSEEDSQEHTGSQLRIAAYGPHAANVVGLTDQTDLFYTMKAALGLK

[4] = biological target: T2, alkaline phosphatase (AP); assay: as above
[5] = biological target: T1, alkaline phosphatase (AP); assay: as above
[6] = biological target: T2, alkaline phosphatase (AP); assay: […]-based hydrolysis assay, kcat/KM
[7] = biological target: T1, alkaline phosphatase (AP); assay: […]-based hydrolysis assay, kcat/KM

T2 sequence (P00634 23-471 R188S): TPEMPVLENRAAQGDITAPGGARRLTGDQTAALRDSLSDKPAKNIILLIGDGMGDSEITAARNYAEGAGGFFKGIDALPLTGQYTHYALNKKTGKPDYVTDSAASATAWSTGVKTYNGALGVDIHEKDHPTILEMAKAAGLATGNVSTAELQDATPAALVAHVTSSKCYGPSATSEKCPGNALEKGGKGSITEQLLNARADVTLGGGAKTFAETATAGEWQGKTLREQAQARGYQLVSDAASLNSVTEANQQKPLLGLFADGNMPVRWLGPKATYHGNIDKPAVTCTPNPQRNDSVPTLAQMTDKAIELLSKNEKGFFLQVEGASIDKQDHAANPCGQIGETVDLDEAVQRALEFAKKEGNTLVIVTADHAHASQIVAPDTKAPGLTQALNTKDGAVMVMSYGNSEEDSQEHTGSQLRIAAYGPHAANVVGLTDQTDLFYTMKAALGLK
T1 sequence (P00634 23-471 R188K): as the sequence (P00634 23-471 R188S) above, with S166K counted along it

`O=[N+]([O-])c1ccc(OP(=O)(O)O)cc1` [pNPP, p-Nitrophenyl phosphate] was tested, and the “pNPP / kcat/KM (M^-1s^-1)” value [1] was 1.9 × 10^5 M^−1s^−1 and the “pNPP / kcat/KM (M^-1s^-1)” value [2] was 1.0 × 10^5 M^−1s^−1.
In the case of `O=[N+]([O-])c1ccc(OP(O)(O)=S)cc1` [pNPPS, p-Nitrophenyl O-phosphorothioate], the “kcat/KM (M^-1s^-1) / pNPPS” value [3] is reported as 5.5 × 10^3 M^−1s^−1, the “kcat/KM (M^-1s^-1) / pNPPS” value [4] is reported as 2.6 × 10^3 M^−1s^−1 and the “kcat/KM (M^-1s^-1) / pNPPS” value [5] is reported as 1.6 × 10^4 M^−1s^−1.
For `CCOP(=O)(O)O` [EtOP, ethyl phosphate], the “EtOP / kcat/KM” value [6] was 24 M⁻¹ s⁻¹ and the “EtOP / kcat/KM” value [7] was 20 M⁻¹ s⁻¹.
